15 compounds from US20250129086A1, “COMPOUND FOR DEGRADING EGFR PROTEIN AND USE THEREOF” (TYK MEDICINES, INC., priority 2021, published 2025) can be followed below.

Experiment [1] deals with H1975 (EGFR L858R/T790M double mutation). The experiment can be described thus: Cell antiproliferative assay (CTG, 72 h), H1975. The class given is cell-based, human. Particulars: Table 2, H1975 cells. The method in brief: (§1)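 Cells seeded at 1500-2500 per well, compounds added about 24 h later as a 1:4 gradient from 10,000 nM top concentration in triplicate. After 72 h, viability read by CellTiter-Glo luminescence relative to 0.1% DMSO and blank-medium controls; IC50 from curve fitting.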

Experiment [2] relates to PC-9 (EGFR exon 19 deletion). Put plainly: Cell antiproliferative assay (CTG, 72 h), PC-9. The class given is cell-based, human. As to conditions: Table 2, PC-9 cells. The method in brief: as §1
Experiment [3] relates to HCC827 (exon 19 deletion mutation). The experiment can be described thus: Cell antiproliferative assay (CTG, 72 h), HCC827. Type of experiment: cell-based, human. Particulars: Table 2, HCC827 cells. The method in brief: as §1
The target in a further experiment is T1, EGFR (Homo sapiens, UniProt P00533, DEL746-750).
T1 construct: host or cells: HCC827
Put plainly: EGFR PROTAC In Cell Western assay in HCC827. Type of experiment: cell-based. Particulars: HCC827, EGFR degradation, 16 hours of incubation; for Dmax: HCC827, Table 4. An excerpt:
Test Example 2 EGFR PROTAC in Cell Western Assay
HCC827 cell culture medium was purchased from Corning. Cell line HCC827 was purchased from BeNa Culture Collection; EGF Receptor (D38B1) XP Rabbit mAb antibody and β-Actin (8H10D10) Mouse mAb antibody were from CST. IRDye 800CW, IRDye 680RD, and Intercept blocking solution (PBS) were purchased from Licor. Triton-100 was purchased from sigma, and 96-well black cell culture imaging microtiter plates were purchased from Agilent.
1) HCC827 cells were cell counted and cells were inoculated into 96-well black cell culture imaging microtiter plates at a density of 40,000 cells per well, with 100 μl per well. The plate was incubated overnight in a CO2 incubator.
2) Day 1: A gradient dilution of the compound to be tested was added to the cells of the culture plate (with a starting concentration of […], 9 concentrations, a dilution ratio of 1:3, 2 duplicate wells), with a final concentration of DMSO being 0.5%, and a blank control of DMSO without compound. The plate was placed in the cell culture incubator for a final 16 hours of incubation.
3) The culture medium was removed from the 96 wells with a pipette and the residual medium was washed with […] of PBS per well on a shaker for 5 min. After the removal of PBS, cells were quickly fixed by adding 150 μl of fresh fixation buffer (3.7% paraformaldehyde) and incubated for 20 min at room temperature.
4) The fixation buffer was removed and […] of Triton elution buffer (0.3% Triton-100) was added to wash for four times on a shaker for 5 minutes each time.
5)[…] LI-COR Odyssey blocking solution was added and the cells were incubated for 1.5 hours at room temperature with slow shaking on a shaker.
6) To block the samples, a primary antibody against EGFR and Actin were prepared using Antibody Dilution Buffer at a ratio of 1:300. The blocking solution was poured out and the diluted primary antibody was added (at a total volume of 50 μl/per well). The cell plate was covered and incubated at 4° C. overnight.
7) The cell plate was washed four times with PBS+Triton X-100 for 5 minutes each time.
8) Fluorescently labeled secondary antibodies IRDye® 680RD and IRDye® 800CW were diluted with Antibody Dilution Buffer (with a ratio of 1:600, at a total volume of 50 μl/well) and then incubated for one hour at room temperature, protected from light.
9) The cell plate was washed four times with PBS+Triton X-100 for 5 minutes each time.
After pipetting the PBS thoroughly, the plate was inverted and imaged on a Burroughs imager. A multiple exposure program was selected, IRDye 680RD Blot was chosen for the first channel, and IRDye 800CW Blot was chosen for the second channel. […] The blank group was the DMSO group, EGFR/Actin was calculated as the EGFR value of the corresponding sample wells, and the degradation rate=100-100*EGFR signal/DMSO signal. The DC50 and Dmax of the degraded EGFR proteins were calculated by fitting curves using the Prism software, 3-parameter method.

T1 sequence (P00533 with tags, fused parts or gaps DEL746-750): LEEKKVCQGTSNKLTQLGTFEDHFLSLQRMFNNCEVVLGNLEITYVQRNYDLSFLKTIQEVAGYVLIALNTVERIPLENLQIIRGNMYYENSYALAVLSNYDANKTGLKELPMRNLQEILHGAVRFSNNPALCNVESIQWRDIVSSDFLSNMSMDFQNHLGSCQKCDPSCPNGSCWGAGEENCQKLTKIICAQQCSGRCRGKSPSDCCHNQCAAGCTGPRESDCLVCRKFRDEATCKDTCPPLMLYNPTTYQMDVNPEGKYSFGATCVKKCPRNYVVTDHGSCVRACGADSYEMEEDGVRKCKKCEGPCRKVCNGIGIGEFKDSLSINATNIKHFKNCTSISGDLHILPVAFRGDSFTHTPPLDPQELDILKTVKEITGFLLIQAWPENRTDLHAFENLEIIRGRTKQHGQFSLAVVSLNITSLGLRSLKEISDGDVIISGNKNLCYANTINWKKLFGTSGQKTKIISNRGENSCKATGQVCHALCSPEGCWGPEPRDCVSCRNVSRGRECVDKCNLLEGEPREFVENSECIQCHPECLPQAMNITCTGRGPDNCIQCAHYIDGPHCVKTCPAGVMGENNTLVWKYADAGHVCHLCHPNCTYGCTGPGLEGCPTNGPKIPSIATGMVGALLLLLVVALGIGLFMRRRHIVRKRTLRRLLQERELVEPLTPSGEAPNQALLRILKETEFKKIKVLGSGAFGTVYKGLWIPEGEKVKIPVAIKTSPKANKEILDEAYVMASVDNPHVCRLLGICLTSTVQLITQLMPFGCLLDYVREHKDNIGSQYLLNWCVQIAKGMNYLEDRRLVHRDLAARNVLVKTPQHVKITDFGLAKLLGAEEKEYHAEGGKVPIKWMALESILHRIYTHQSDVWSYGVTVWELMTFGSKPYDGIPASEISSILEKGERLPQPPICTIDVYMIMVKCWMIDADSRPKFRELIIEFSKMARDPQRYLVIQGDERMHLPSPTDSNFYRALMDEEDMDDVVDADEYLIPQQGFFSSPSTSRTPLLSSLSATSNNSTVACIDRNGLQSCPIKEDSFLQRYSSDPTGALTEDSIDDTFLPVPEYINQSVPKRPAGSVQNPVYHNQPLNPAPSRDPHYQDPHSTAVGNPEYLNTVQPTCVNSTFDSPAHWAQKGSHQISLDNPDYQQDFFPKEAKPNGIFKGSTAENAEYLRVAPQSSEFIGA

One may read the IC50 as the concentration that gives 50% inhibition. A lower IC50 goes with inhibition by little substance. Usually Dmax stands for the largest share of the target that was removed. Lower therefore signals a partial loss of target. One may read the DC50 as the midpoint of the concentration-degradation curve. Low values mean degradation at low concentration, high ones degradation only at high concentration. In the case of `COc1cc(N2C3CCC2CN(C(=O)CN2CCC(c4ccc(NC5CCC(=O)NC5=O)cc4)CC2)C3)ccc1Nc1ncc(Cl)c(Nc2ccccc2C(C)=O)n1` (stereo not drawn) [Compound T-191], the IC50 in experiment [1] (Homo sapiens, NCI-H1975, 72 h) was 10 to 100 nM; in experiment [2] (Homo sapiens, PC-9, 72 h) it was 100 to 1000 nM; in experiment [3] (Homo sapiens, HCC827, 72 h), 100 to 1000 nM. For the same compound, at EGFR, the Dmax fell in the range of 50 to 70%. Further, the DC50 on EGFR (Table 4) lay within 100 to 1000 nM.

As to `COc1cc(N2CCN(C(=O)CN3CCC(c4ccc(NC5CCC(=O)NC5=O)cc4)CC3)CC2)ccc1Nc1ncc(Cl)c(Nc2ccccc2C(=O)N(C)C)n1` (stereo not drawn) [Compound T-198], the IC50 was ≤ 10 nM in experiment [1] (Homo sapiens, NCI-H1975, 72 h); 100 to 1000 nM in experiment [2] (Homo sapiens, PC-9, 72 h); 100 to 1000 nM in experiment [3] (Homo sapiens, HCC827, 72 h). Besides, at EGFR, the Dmax lay in the range of 50 to 70%. The DC50 at EGFR (Table 4) is ≤ 10 nM.

As for `COc1nc(N2CCN(C(=O)CN3CCC(c4ccc(NC5CCC(=O)NC5=O)cc4)CC3)CC2)ccc1Nc1ncc(Cl)c(Nc2ccccc2P(C)(C)=O)n1` (stereo not drawn) [Compound T-203], the IC50 in experiment [1] (Homo sapiens, NCI-H1975, 72 h) lay in the range of 10 to 100 nM; in experiment [2] (Homo sapiens, PC-9, 72 h), 100 to 1000 nM; in experiment [3] (Homo sapiens, HCC827, 72 h), 10 to 100 nM. On EGFR, this compound had a Dmax of 50 to 70%. Moreover, the DC50 at EGFR (Table 4) is 10 to 100 nM.

For the compound `COc1cc(N2CCC(N3CCN(C(=O)CN4CCC(c5ccc(NC6CCC(=O)NC6=O)cc5)CC4)CC3)CC2)ccc1Nc1ncc(Cl)c(Nc2ccccc2N(C)S(C)(=O)=O)n1` (stereo not drawn) [Compound T-211], the IC50 was in the range of 10 to 100 nM in experiment [1] (Homo sapiens, NCI-H1975, 72 h); 100 to 1000 nM in experiment [2] (Homo sapiens, PC-9, 72 h); 10 to 100 nM in experiment [3] (Homo sapiens, HCC827, 72 h). The compound further returned a Dmax at EGFR of 50 to 70%. For the same compound, the DC50 at EGFR (Table 4) is 10 to 100 nM.

For `COc1cc(N2CCC(N3CCN(C(=O)CCCCN4CCC(c5ccc(NC6CCC(=O)NC6=O)cc5)CC4)CC3)CC2)ccc1Nc1ncc(Cl)c(Nc2ccccc2N(C)S(C)(=O)=O)n1` (stereo not drawn) [Compound T-220], the IC50 in experiment [1] (Homo sapiens, NCI-H1975, 72 h) is 10 to 100 nM; in experiment [2] (Homo sapiens, PC-9, 72 h) it was 100 to 1000 nM; in experiment [3] (Homo sapiens, HCC827, 72 h) it was 100 to 1000 nM. The Dmax on EGFR is < 50%. The DC50 on EGFR (Table 4) was in the range of 10 to 100 nM.

`COc1cc(N2CCC(N3CCN(C(=O)CCCCN4CCN(c5ccc6c(c5)C(=O)N(C5CCC(=O)NC5=O)C6=O)CC4)CC3)CC2)ccc1Nc1ncc(Cl)c(Nc2ccccc2C(C)=O)n1` (stereo not drawn) [Compound T-221]: the IC50 is 100 to 1000 nM in experiment [1] (Homo sapiens, NCI-H1975, 72 h); ≥ 1000 nM in experiment [2] (Homo sapiens, PC-9, 72 h); ≥ 1000 nM in experiment [3] (Homo sapiens, HCC827, 72 h). For the same compound, on EGFR, the Dmax was < 50%. At EGFR (Table 4), this compound yielded a DC50 of 100 to 1000 nM.

With `COc1cc(N2CCC(N(C)C(=O)CN3CCC(c4ccc(NC5CCC(=O)NC5=O)cc4)CC3)CC2)ccc1Nc1ncc(C(F)(F)F)c(Nc2ccccc2C(C)=O)n1` (stereo not drawn) [Compound T-224], the IC50 lay in the range of 10 to 100 nM in experiment [1], 100 to 1000 nM in experiment [2] and 100 to 1000 nM in experiment [3]. In addition, on EGFR (Table 4), the DC50 fell in the range of 10 to 100 nM. The “Dmax(%)” value at EGFR (Table 4) is on record as “C (C<50%)”.

On to `COc1cc(N2CCN(C(=O)CN3CCC(c4ccc(NC5CCC(=O)NC5=O)cc4)CC3)CC2)ccc1Nc1ncc(Cl)c(Nc2ccccc2N(C)S(C)(=O)=O)n1` (stereo not drawn) [Compound T-227], for which the IC50 is ≤ 10 nM in experiment [1] (Homo sapiens, NCI-H1975, 72 h); 10 to 100 nM in experiment [2] (Homo sapiens, PC-9, 72 h); 10 to 100 nM in experiment [3] (Homo sapiens, HCC827, 72 h). In addition, on EGFR, the Dmax lay within 50 to 70%. In addition, the DC50 on EGFR (Table 4) lay within 10 to 100 nM.

As to `COc1cc(N2CCN(C(=O)CN3CCC(c4ccc(NC5CCC(=O)NC5=O)cc4)CC3)CC2)c(-c2cnn(C)c2)cc1Nc1ncc(Cl)c(Nc2ccccc2C(C)=O)n1` (stereo not drawn) [Compound T-233], the IC50 in experiment [1] (Homo sapiens, NCI-H1975, 72 h) lay within 10 to 100 nM; in experiment [2] (Homo sapiens, PC-9, 72 h) it was 100 to 1000 nM; in experiment [3] (Homo sapiens, HCC827, 72 h), 10 to 100 nM. The compound further returned a Dmax on EGFR of 50 to 70%. The DC50 at EGFR (Table 4) is 10 to 100 nM.

Take `COc1cc(N2CCN(C(=O)CN3CCC(c4ccc(NC5CCC(=O)NC5=O)cc4)CC3)CC2)ncc1Nc1ncc(C(F)(F)F)c(Nc2ccccc2C(C)=O)n1` (stereo not drawn) [Compound T-246]: the IC50 in experiment [1] (Homo sapiens, NCI-H1975, 72 h) is ≤ 10 nM; in experiment [2] (Homo sapiens, PC-9, 72 h), 10 to 100 nM; in experiment [3] (Homo sapiens, HCC827, 72 h) it was 10 to 100 nM. At EGFR, this compound returned a Dmax of 70 to 100%. The DC50 at EGFR (Table 4) was ≤ 10 nM.

Regarding `CNC(=O)c1ccccc1Nc1nc(Nc2cc(C)c(N3CCN(C(=O)CN4CCC(c5ccc(NC6CCC(=O)NC6=O)cc5)CC4)CC3)cc2OC)ncc1Cl` (stereo not drawn) [Compound T-254], the IC50 in experiment [1] (Homo sapiens, NCI-H1975, 72 h) was ≤ 10 nM; in experiment [2] (Homo sapiens, PC-9, 72 h), 10 to 100 nM; in experiment [3] (Homo sapiens, HCC827, 72 h), 10 to 100 nM. The compound also had a Dmax on EGFR of 70 to 100%. The DC50 on EGFR (Table 4) lay within 10 to 100 nM.

In the case of `CC(=O)c1ccccc1Nc1nc(Nc2ccc(N3CCN(C(=O)CN4CCC(c5ccc(NC6CCC(=O)NC6=O)cc5)CC4)CC3)cc2Cl)ncc1Cl` (stereo not drawn) [Compound T-333], the IC50 in experiment [1] (Homo sapiens, NCI-H1975, 72 h) was 100 to 1000 nM; in experiment [2] (Homo sapiens, PC-9, 72 h) it was 100 to 1000 nM; in experiment [3] (Homo sapiens, HCC827, 72 h), 100 to 1000 nM. Besides, the Dmax at EGFR is < 50%. The same compound returned a DC50 at EGFR (Table 4) of 10 to 100 nM.

On to `COc1cc(C2CCN(C(=O)CN3CCC(c4ccc(NC5CCC(=O)NC5=O)cc4)CC3)CC2)ccc1Nc1ncc(Cl)c(Nc2ccccc2C(C)=O)n1` (stereo not drawn) [Compound T-334], for which the half-inhibitory concentration (IC50) fell in the range of 100 to 1000 nM in experiment [1] (Homo sapiens, NCI-H1975, 72 h); 100 to 1000 nM in experiment [2] (Homo sapiens, PC-9, 72 h); 100 to 1000 nM in experiment [3] (Homo sapiens, HCC827, 72 h). For the same compound, the Dmax at EGFR is < 50%. At EGFR (Table 4), this compound showed a DC50 of 100 to 1000 nM.

For `C=CC(=O)Nc1cc(Nc2ncc(Cl)c(Nc3ccccc3)n2)c(OC)cc1N1CCN(C(=O)CN2CCC(c3ccc(NC4CCC(=O)NC4=O)cc3)CC2)CC1` (stereo not drawn) [Compound T-335], the IC50 in experiment [1] (Homo sapiens, NCI-H1975, 72 h) was in the range of 100 to 1000 nM; in experiment [2] (Homo sapiens, PC-9, 72 h) it was 100 to 1000 nM; in experiment [3] (Homo sapiens, HCC827, 72 h), 100 to 1000 nM. The same compound had a Dmax at EGFR of 50 to 70%. The DC50 on EGFR (Table 4) fell in the range of 100 to 1000 nM.

Regarding `COc1cc(N2CCC(NC(=O)CN3CCC(c4ccc(NC5CCC(=O)NC5=O)cc4)CC3)CC2)ccc1Nc1ncc(Cl)c(Nc2ccccc2C(C)=O)n1` (stereo not drawn) [Compound T-336], the IC50 lay in the range of 100 to 1000 nM in experiment [1] (Homo sapiens, NCI-H1975, 72 h); 100 to 1000 nM in experiment [2] (Homo sapiens, PC-9, 72 h); 100 to 1000 nM in experiment [3] (Homo sapiens, HCC827, 72 h). The Dmax on EGFR was < 50%. For the same compound, the DC50 at EGFR (Table 4) fell in the range of 10 to 100 nM.
